Test results taken from ChEMBL document CHEMBL5236603, “Discovery of mobocertinib, a potent, oral inhibitor of EGFR exon 20 insertion mutations in non-small cell lung cancer” (Bioorg Med Chem Lett, 2023).

Tests used:
[1] = Inhibition of mouse EGFR D770_N771insNPG mutant stably expressed in mouse BaF3 cells assessed as cell viability incubated for 3 days by Cell Titer-Glo assay; type: cell-based; conditions: BaF3, 72 h
[2] = Inhibition of mouse EGFR V769_D770insASV mutant stably expressed in mouse BaF3 cells assessed as cell viability incubated for 3 days by Cell Titer-Glo assay; type: cell-based; conditions: BaF3, 72 h
[3] = target: Epidermal growth factor receptor (Homo sapiens, UniProt P00533); experiment: Inhibition of […]-induced EGFR phosphorylation in human A549 cells pretreated for 2 hrs followed by EGF stimulation by immune assay; type: cell-based
[4] = Cmax in CD-1 mouse at 10 mg/kg, po by LC/MS/MS analysis; type: ADME, organism-based; design: dose 10 mg/kg, route po; conditions: in vivo
[5] = AUClast in CD-1 mouse at 10 mg/kg, po by LC/MS/MS analysis; type: ADME, organism-based; design: dose 10 mg/kg, route po; conditions: in vivo
[6] = Cmax in CD-1 rat at 10 mg/kg, po by LC/MS/MS analysis; type: ADME, organism-based; design: dose 10 mg/kg, route po; conditions: in vivo
[7] = AUClast in CD-1 rat at 10 mg/kg, po by LC/MS/MS analysis; type: ADME, organism-based; design: dose 10 mg/kg, route po; conditions: in vivo
BaF3 [8] = experiment: In vivo antitumor activity against mouse BaF3 cells expressing EGFR exon 20 insertion (ex20ins) ASV implanted in SCID mouse assessed as tumor growth inhibition at 50 mg/kg, po administered for 7 consecutive days; type: functional; conditions: 168 h, time 7 day, read-out: TGI
BaF3 [9] = experiment: In vivo antitumor activity against mouse BaF3 cells expressing EGFR exon 20 insertion (ex20ins) ASV implanted in SCID mouse assessed as tumor regression at 100 mg/kg, po administered for 7 consecutive days; type: functional; conditions: time 7 day
[10] = Inhibition of mouse EGFR delE746_A750 mutant stably expressed in mouse BaF3 cells assessed as cell viability incubated for 3 days by Cell Titer-Glo assay; type: cell-based; conditions: BaF3, 72 h
[11] = Inhibition of mouse EGFR Del-T790M double mutant stably expressed in mouse BaF3 cells assessed as cell viability incubated for 3 days by Cell Titer-Glo assay; type: cell-based; conditions: BaF3, 72 h

Chain of Epidermal growth factor receptor (P00533 whole entry): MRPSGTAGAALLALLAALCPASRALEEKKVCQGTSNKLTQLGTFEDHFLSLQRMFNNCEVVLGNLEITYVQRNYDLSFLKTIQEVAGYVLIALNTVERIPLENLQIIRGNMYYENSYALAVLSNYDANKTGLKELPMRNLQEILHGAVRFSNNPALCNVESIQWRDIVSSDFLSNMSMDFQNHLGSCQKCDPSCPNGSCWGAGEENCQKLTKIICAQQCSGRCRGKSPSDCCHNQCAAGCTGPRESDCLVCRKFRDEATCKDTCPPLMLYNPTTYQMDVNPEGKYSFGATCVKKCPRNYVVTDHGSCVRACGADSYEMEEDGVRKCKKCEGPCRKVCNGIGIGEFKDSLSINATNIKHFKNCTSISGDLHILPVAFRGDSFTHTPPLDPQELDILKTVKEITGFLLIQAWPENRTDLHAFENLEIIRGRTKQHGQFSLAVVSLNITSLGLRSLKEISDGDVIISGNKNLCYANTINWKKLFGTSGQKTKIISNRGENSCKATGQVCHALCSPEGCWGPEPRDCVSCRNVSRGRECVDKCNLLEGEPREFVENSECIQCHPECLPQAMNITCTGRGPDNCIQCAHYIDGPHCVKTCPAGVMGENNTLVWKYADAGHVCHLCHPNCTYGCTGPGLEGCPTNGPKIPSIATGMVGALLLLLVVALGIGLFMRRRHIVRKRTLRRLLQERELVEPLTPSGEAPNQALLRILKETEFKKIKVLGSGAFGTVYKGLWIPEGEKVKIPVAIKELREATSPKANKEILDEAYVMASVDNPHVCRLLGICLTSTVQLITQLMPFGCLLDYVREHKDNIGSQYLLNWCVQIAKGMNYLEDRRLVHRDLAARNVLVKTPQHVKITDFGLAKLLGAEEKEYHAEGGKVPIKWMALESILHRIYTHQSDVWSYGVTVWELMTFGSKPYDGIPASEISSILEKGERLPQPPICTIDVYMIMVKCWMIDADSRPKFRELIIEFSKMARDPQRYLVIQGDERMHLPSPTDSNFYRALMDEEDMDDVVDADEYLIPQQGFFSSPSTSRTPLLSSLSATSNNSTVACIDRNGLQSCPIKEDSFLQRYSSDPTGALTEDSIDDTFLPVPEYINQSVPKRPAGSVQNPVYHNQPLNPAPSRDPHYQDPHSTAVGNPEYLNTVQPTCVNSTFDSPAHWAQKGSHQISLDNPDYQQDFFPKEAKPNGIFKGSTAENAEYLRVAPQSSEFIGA

SMILES: C=CC(=O)Nc1cc(Nc2ncc(C(=O)OCC(C)C)c(-c3cn(C)c4ccccc34)n2)c(OC)cc1N(C)CCN(C)C
- IC50 [1]: 14 nM
- IC50 [2]: 43 nM
- IC50 [3]: 142 nM

SMILES: C=CC(=O)Nc1cc(Nc2ncc(-c3nc(C)no3)c(-c3cn4c5c(cccc35)CCC4)n2)c(OC)cc1N(C)CCN(C)C
- IC50 [1]: 11 nM
- IC50 [2]: 38 nM
- IC50 [3]: 49 nM
- Cmax [4]: 31 ng/mL
- AUC(0-t) [5]: 96 ng·h/mL

SMILES: C=CC(=O)Nc1cc(Nc2ncc(C(=O)OC(C)C)c(-c3cn(C)c4ccccc34)n2)c(OC)cc1N(C)C[C@@H]1CCCN1C
- IC50 [1]: 8 nM
- IC50 [2]: 14 nM
- IC50 [3]: 57 nM
- Cmax [4]: 145 ng/mL
- AUC(0-t) [5]: 643 ng·h/mL
- Cmax [6]: 107 ng/mL
- AUC(0-t) [7]: 1390 ng·h/mL
- inhibition in vivo at 50 mg/kg (BaF3 [8]): 82%
- Activity (BaF3 [9]): -51%

SMILES: C=CC(=O)Nc1cc(Nc2ncc(C(=O)OC(C)C)c(-c3cn(C4CC4)c4ccccc34)n2)c(OC)cc1N(C)CCN(C)C
- IC50 [1]: 23 nM
- IC50 [2]: 30 nM
- IC50 [3]: 224 nM

SMILES: C=CC(=O)Nc1cc(Nc2nccc(-c3cn4c5c(cccc35)CCC4)n2)c(OC)cc1N(C)CCN(C)C
- IC50 [1]: 54 nM
- IC50 [2]: 197 nM
- IC50 [3]: 405 nM
- Cmax [4]: 81 ng/mL
- AUC(0-t) [5]: 285 ng·h/mL
- Cmax [6]: 126 ng/mL
- AUC(0-t) [7]: 466 ng·h/mL

SMILES: C=CC(=O)Nc1cc(Nc2ncc(C(=O)OC(C)C)c(-c3cn4c5c(cccc35)CCC4)n2)c(OC)cc1N(C)CCN(C)C
- IC50 [1]: 6.57 nM
- IC50 [2]: 12.4 nM
- IC50 [3]: 39 nM

SMILES: C=CC(=O)Nc1cccc(Nc2nc(Nc3ccc(N4CCN(C(C)=O)CC4)cc3OC)ncc2C(F)(F)F)c1 [ROCILETINIB]
- IC50 [10]: 25 nM
- IC50 [11]: 9 nM
- IC50 [1]: 179 nM
- IC50 [2]: 883 nM

SMILES: C=CC(=O)Nc1cc(Nc2ncc(C(=O)CC)c(-c3cn4c5c(cccc35)CCC4)n2)c(OC)cc1N(C)CCN(C)C
- IC50 [1]: 4.95 nM
- IC50 [2]: 17.3 nM
- IC50 [3]: 23 nM

SMILES: C=CC(=O)Nc1cc(Nc2ncc(C(=O)OC(C)C)c(-c3cn(C(C)=O)c4ccccc34)n2)c(OC)cc1N(C)CCN(C)C
- IC50 [1]: 3 nM
- IC50 [2]: 4 nM
- IC50 [3]: 79 nM
- Cmax [4]: 42 ng/mL
- AUC(0-t) [5]: 87 ng·h/mL
- Cmax [6]: 16 ng/mL
- AUC(0-t) [7]: 38 ng·h/mL

SMILES: C=CC(=O)Nc1cc(Nc2ncc(C(=O)OC(C)C)c(-c3cn(CC)c4ccccc34)n2)c(OC)cc1N(C)CCN(C)C
- IC50 [1]: 5 nM
- IC50 [2]: 7 nM
- IC50 [3]: 24 nM
- Cmax [4]: 72 ng/mL
- AUC(0-t) [5]: 631 ng·h/mL
- Cmax [6]: 149 ng/mL
- AUC(0-t) [7]: 1920 ng·h/mL

SMILES: C=CC(=O)Nc1cc(Nc2ncc(Cl)c(-c3cn4c5c(cccc35)OCC4)n2)c(OC)cc1N(C)CCN(C)C
- IC50 [1]: 15 nM
- IC50 [2]: 35 nM
- IC50 [3]: 36 nM

SMILES: C=CC(=O)Nc1cc(Nc2nccc(-c3cn4c5c(cccc35)OCC4)n2)c(OC)cc1N(C)CCN(C)C
- IC50 [1]: 52 nM
- IC50 [2]: 137 nM
- Cmax [4]: 97 ng/mL
- AUC(0-t) [5]: 438 ng·h/mL
- Cmax [6]: 207 ng/mL
- AUC(0-t) [7]: 2680 ng·h/mL

SMILES: C=CC(=O)Nc1cc(Nc2ncc(Cl)c(-c3c4n(c5ccccc35)CCOC4)n2)c(OC)cc1N(C)CCN(C)C
- IC50 [1]: 754 nM
- IC50 [2]: 1020 nM
- IC50 [3]: 2970 nM

SMILES: C=CC(=O)Nc1cc(Nc2nccc(-c3c4n(c5ccccc35)CCOC4)n2)c(OC)cc1N(C)CCN(C)C
- IC50 [1]: 53 nM
- IC50 [2]: 112 nM
- IC50 [3]: 288 nM
- Cmax [4]: 183 ng/mL
- AUC(0-t) [5]: 655 ng·h/mL
- Cmax [6]: 248 ng/mL
- AUC(0-t) [7]: 2670 ng·h/mL

SMILES: C=CC(=O)Nc1cc(Nc2ncc(Cl)c(-c3cn4c5c(cccc35)CCC4)n2)c(OC)cc1N(C)CCN(C)C
- IC50 [1]: 22 nM
- IC50 [2]: 58 nM
- IC50 [3]: 71 nM

SMILES: C=CC(=O)Nc1cc(Nc2ncc(Cl)c(-c3cnn4ccccc34)n2)c(OC)cc1N(C)CCN(C)C
- IC50 [1]: 32 nM
- IC50 [2]: 59 nM
- IC50 [3]: 95 nM

SMILES: C=CC(=O)Nc1cc(Nc2ncc(C(=O)NC)c(-c3cn4c5c(cccc35)CCC4)n2)c(OC)cc1N(C)CCN(C)C
- IC50 [1]: 37.6 nM
- IC50 [2]: 136 nM
- IC50 [3]: 147 nM

SMILES: C=CC(=O)Nc1cc(Nc2ncc(C(=O)OC)c(-c3cn4c5c(cccc35)CCC4)n2)c(OC)cc1N(C)CCN(C)C
- IC50 [1]: 6.57 nM
- IC50 [2]: 22.1 nM
- IC50 [3]: 40 nM
- Cmax [4]: 20 ng/mL
- AUC(0-t) [5]: 56 ng·h/mL
- Cmax [6]: 170 ng/mL
- AUC(0-t) [7]: 1920 ng·h/mL

SMILES: C=CC(=O)Nc1cc(Nc2ncc(-c3cnn(C(C)C)c3)c(-c3cn4c5c(cccc35)CCC4)n2)c(OC)cc1N(C)CCN(C)C
- IC50 [1]: 13 nM
- IC50 [2]: 16 nM
- IC50 [3]: 15 nM
- Cmax [4]: 46 ng/mL
- AUC(0-t) [5]: 353 ng·h/mL
- Cmax [6]: 163 ng/mL
- AUC(0-t) [7]: 2020 ng·h/mL

SMILES: C=CC(=O)Nc1cc(Nc2ncc(C(=O)OC3CCC3)c(-c3cn(C)c4ccccc34)n2)c(OC)cc1N(C)CCN(C)C
- IC50 [1]: 9 nM
- IC50 [2]: 28 nM
- IC50 [3]: 84 nM

SMILES: C#Cc1cnc(Nc2cc(NC(=O)C=C)c(N(C)CCN(C)C)cc2OC)nc1-c1cn2c3c(cccc13)CCC2
- IC50 [1]: 9.8 nM
- IC50 [2]: 25 nM
- IC50 [3]: 42 nM

SMILES: C=CC(=O)Nc1cc(Nc2ncc(-c3ncco3)c(-c3cn4c5c(cccc35)CCC4)n2)c(OC)cc1N(C)CCN(C)C
- IC50 [1]: 9 nM
- IC50 [2]: 29 nM
- IC50 [3]: 45 nM
- Cmax [4]: 57 ng/mL
- AUC(0-t) [5]: 234 ng·h/mL
- Cmax [6]: 86 ng/mL
- AUC(0-t) [7]: 1140 ng·h/mL

SMILES: CN(C)C/C=C/C(=O)Nc1cc2c(Nc3ccc(F)c(Cl)c3)ncnc2cc1O[C@H]1CCOC1 [AFATINIB]
- IC50 [10]: 0.6 nM
- IC50 [11]: 97 nM
- IC50 [1]: 36 nM
- IC50 [2]: 44 nM

SMILES: C=CC(=O)Nc1cc(Nc2ncc(-c3nnco3)c(-c3cn4c5c(cccc35)CCC4)n2)c(OC)cc1N(C)CCN(C)C
- IC50 [1]: 6.2 nM
- IC50 [2]: 13 nM
- IC50 [3]: 15 nM
- Cmax [4]: 9 ng/mL
- AUC(0-t) [5]: 22 ng·h/mL
- Cmax [6]: 38 ng/mL
- AUC(0-t) [7]: 427 ng·h/mL

SMILES: C=CC(=O)Nc1cc(Nc2ncc(-c3ccnn3C)c(-c3cn4c5c(cccc35)CCC4)n2)c(OC)cc1N(C)CCN(C)C
- IC50 [1]: 11 nM
- IC50 [2]: 28 nM
- IC50 [3]: 23 nM
- Cmax [4]: 218 ng/mL
- AUC(0-t) [5]: 884 ng·h/mL
- Cmax [6]: 320 ng/mL
- AUC(0-t) [7]: 2950 ng·h/mL

SMILES: C=CC(=O)Nc1cc(Nc2nccc(-c3cn(C)c4ccccc34)n2)c(OC)cc1N(C)CCN(C)C [OSIMERTINIB]
- IC50 [10]: 6 nM
- IC50 [11]: 7 nM
- IC50 [1]: 53 nM
- IC50 [2]: 158 nM
- Cmax [4]: 175 ng/mL
- Cmax [6]: 98 ng/mL

SMILES: C=CC(=O)Nc1cc(Nc2ncc(C(=O)OC)c(-c3cn(C)c4ccccc34)n2)c(OC)cc1N(C)CCN(C)C
- IC50 [1]: 8 nM
- IC50 [2]: 18 nM
- IC50 [3]: 20 nM
- Cmax [4]: 31 ng/mL
- AUC(0-t) [5]: 92 ng·h/mL
- Cmax [6]: 207 ng/mL
- AUC(0-t) [7]: 2300 ng·h/mL

SMILES: C=CC(=O)Nc1cc(Nc2ncc(C(=O)OCC)c(-c3cn4c5c(cccc35)CCC4)n2)c(OC)cc1N(C)CCN(C)C
- IC50 [1]: 6.43 nM
- IC50 [2]: 15 nM
- IC50 [3]: 32 nM
- Cmax [4]: 29 ng/mL
- AUC(0-t) [5]: 102 ng·h/mL
- Cmax [6]: 110 ng/mL
- AUC(0-t) [7]: 1480 ng·h/mL

SMILES: C=CC(=O)Nc1cc(Nc2ncc(C(=O)OCC)c(-c3cn(C)c4ccccc34)n2)c(OC)cc1N(C)CCN(C)C
- IC50 [1]: 6 nM
- IC50 [2]: 13 nM
- IC50 [3]: 19 nM
- Cmax [4]: 45 ng/mL
- AUC(0-t) [5]: 129 ng·h/mL
- Cmax [6]: 113 ng/mL
- AUC(0-t) [7]: 1540 ng·h/mL
